The numbers were not newly measured in PubChem BioAssay AID1259409 (Chemical Carcinogenesis Research Information System (CCRIS), 2018), which cites them from elsewhere.

The data set deals with rodent chemically induced tumor inhibition, incidence and multiplicity. Description: CCRIS tumor inhibitor studies.

As to `CCCOC(=O)c1cc(O)c(O)c(O)c1`, the “tumour outcome (control, treated, inhibition, significance)” value (Carcinogen: 1,2-DIMETHYLHYDRAZINE, 540-73-8, Dose [Inhibitor]: 0, 1% IN DIET BEGINNING 1 WK POST LAST CARCINOGEN DOSE AND CONTINUING FOR 36 WK (STUDY DURATION: 40 WK), Route [Inhibitor]: ORAL, Species: RAT, Strain/Sex: F344/MALE, Target Tissue: Type of Lesion: COLON: ADENOMA, Dose [Carcinogen]: 20 MG/KG 1/WK FOR 4 WK, Promoter: NONE USED) was 1/20 (5%), 5/20 (25%), -400%, not calculated; the “tumour outcome (control, treated, inhibition, significance)” value (Carcinogen: 1,2-DIMETHYLHYDRAZINE, 540-73-8, Dose [Inhibitor]: 0, 1% IN DIET BEGINNING 1 WK POST LAST CARCINOGEN DOSE AND CONTINUING FOR 36 WK (STUDY DURATION: 40 WK), Route [Inhibitor]: ORAL, Species: RAT, Strain/Sex: F344/MALE, Target Tissue: Type of Lesion: COLON: CARCINOMA, Dose [Carcinogen]: 20 MG/KG 1/WK FOR 4 WK, Promoter: NONE USED) is 6/20 (30%), 6/20 (30%), 0%; the “tumour outcome (control, treated, inhibition, significance)” value (Carcinogen: 7,12-DIMETHYLBENZ(A)ANTHRACENE, 57-97-6, Dose [Inhibitor]: 0.3% IN HIGH SATURATED FAT DIET (STUDY DURATION: 32 WK), Route [Inhibitor]: ORAL, Species: RAT, Strain/Sex: SPRAGUE-DAWLEY/FEMALE, Target Tissue: Type of Lesion: MAMMARY GLAND: PARENCHYMAL CARCINOMA, Dose [Carcinogen]: 10 MG IN 1 ML CORN OIL ONCE AT 50 D OF AGE, Promoter: NONE USED) is recorded as 20/30 (67%), 8/30 (27%), 60%, not calculated; the “tumour outcome (control, treated, inhibition, significance)” value (Carcinogen: 7,12-DIMETHYLBENZ[A]ANTHRACENE, 57-97-6, Dose [Inhibitor]: 0, 20 UMOL IN 0.4 ML ACETONE 20 MIN PRIOR TO EACH PROMOTER DOSE (STUDY DURATION: 47 WK), Route [Inhibitor]: DERMAL, Species: MOUSE, Strain/Sex: CF-1/FEMALE, Target Tissue: Type of Lesion: SKIN: CARCINOMA, Dose [Carcinogen]: 100 NMOL IN 0.2 ML ACETONE ONCE) was 67%, 8%, 88%, not calculated; the “tumour outcome (control, treated, inhibition, significance)” value (Carcinogen: 7,12-DIMETHYLBENZ[A]ANTHRACENE, 57-97-6, Dose [Inhibitor]: 0, 20 UMOL IN 0.4 ML ACETONE 20 MIN PRIOR TO EACH PROMOTER DOSE (STUDY DURATION: 47 WK), Route [Inhibitor]: DERMAL, Species: MOUSE, Strain/Sex: CF-1/FEMALE, Target Tissue: Type of Lesion: SKIN: PAPILLOMA, Dose [Carcinogen]: 100 NMOL IN 0.2 ML ACETONE ONCE) is on record as 94%, 66%, 30%, not calculated; the “tumour outcome (control, treated, inhibition, significance)” value (Carcinogen: 7,12-DIMETHYLBENZ[A]ANTHRACENE, 57-97-6, Dose [Inhibitor]: 0.3% IN HIGH POLYUNSATURATED FAT DIET (STUDY DURATION: 32 WK), Route [Inhibitor]: ORAL, Species: RAT, Strain/Sex: SPRAGUE-DAWLEY/FEMALE, Target Tissue: Type of Lesion: MAMMARY GLAND: PARENCHYMAL CARCINOMA, Dose [Carcinogen]: 10 MG IN 1 ML CORN OIL ONCE AT 50 D OF AGE, 1X, Promoter: NONE USED) was 30/30 (100%), 23/30 (77%), 23%, not calculated. The “tumour outcome (control, treated, inhibition, significance)” value (Carcinogen: 7,12-DIMETHYLBENZ[A]ANTHRACENE, 57-97-6, Dose [Inhibitor]: 0.3% IN HIGH POLYUNSATURATED FAT DIET DAILY STARTING 29 D BEFORE CARCINOGEN TREATMENT AND CONTINUING FOR THE DURATION OF, Route [Inhibitor]: ORAL, Species: RAT, Strain/Sex: SPRAGUE-DAWLEY/FEMALE, Target Tissue: Type of Lesion: MAMMARY GLAND: ADENOCARCINOMA, Dose [Carcinogen]: 10 MG IN 1 ML STRIPPED CORN OIL ONCE AT AGE 50 D, Promoter: NONE USED) is on record as 100%, 70%, 30%, not calculated; the “tumour outcome (control, treated, inhibition, significance)” value (Carcinogen: 7,12-DIMETHYLBENZ[A]ANTHRACENE, 57-97-6, Dose [Inhibitor]: 0.3% IN HIGH SATURATED FAT DIET DAILY STARTING 29 D BEFORE CARCINOGEN TREATMENT AND CONTINUING FOR THE DURATION OF THE S, Route [Inhibitor]: ORAL, Species: RAT, Strain/Sex: SPRAGUE-DAWLEY/FEMALE, Target Tissue: Type of Lesion: MAMMARY GLAND: ADENOCARCINOMA, Dose [Carcinogen]: 10 MG IN 1 ML STRIPPED CORN OIL ONCE AT AGE 50 D, Promoter: NONE USED) was 65%, 35%, 46%, not calculated; the “tumour outcome (control, treated, inhibition, significance)” value (Carcinogen: 7,12-DIMETHYLBENZ[A]ANTHRACENE, 57-97-6, Dose [Inhibitor]: 0.3% IN LOW FAT DIET (STUDY DURATION: 32 WK), Route [Inhibitor]: ORAL, Species: RAT, Strain/Sex: SPRAGUE-DAWLEY/FEMALE, Target Tissue: Type of Lesion: MAMMARY GLAND: PARENCHYMAL CARCINOMA, Dose [Carcinogen]: 10 MG IN 1 ML CORN OIL ONCE AT 50 D OF AGE, Promoter: NONE USED) is listed as 7/30 (23%), 4/30 (13%), 43%, not calculated; the “tumour outcome (control, treated, inhibition, significance)” value (Carcinogen: 7,12-DIMETHYLBENZ[A]ANTHRACENE, 57-97-6, Dose [Inhibitor]: 0.3% IN LOW FAT DIET DAILY STARTING 29 D BEFORE CARCINOGEN TREATMENT AND CONTINUING FOR THE DURATION OF THE STUDY (STUDY, Route [Inhibitor]: ORAL, Species: RAT, Strain/Sex: SPRAGUE-DAWLEY/FEMALE, Target Tissue: Type of Lesion: MAMMARY GLAND: ADENOCARCINOMA, Dose [Carcinogen]: 10 MG IN 1 ML STRIPPED CORN OIL ONCE AT AGE 50 D, Promoter: NONE USED) was 35%, 15%, 57%, not calculated; the “tumour outcome (control, treated, inhibition, significance)” value (Carcinogen: 7,12-DIMETHYLBENZ[A]ANTHRACENE, 57-97-6, Dose [Inhibitor]: 1.0% IN POWDERED DIET BEGINNING 1 WK POST CARCINOGEN DOSE FOR 51 WK (STUDY DURATION: 52 WK), Route [Inhibitor]: ORAL, Species: RAT, Strain/Sex: SPRAGUE-DAWLEY/FEMALE, Target Tissue: Type of Lesion: EAR DUCT: BENIGN TUMOR, Dose [Carcinogen]: 2.5 MG/100 G BW IN 0.5 ML SESAME OIL ONCE, Promoter: NONE USED) was 7/19 (37%), 3/20 (15%), 59%, not calculated; the “tumour outcome (control, treated, inhibition, significance)” value (Carcinogen: 7,12-DIMETHYLBENZ[A]ANTHRACENE, 57-97-6, Dose [Inhibitor]: 1.0% IN POWDERED DIET BEGINNING 1 WK POST CARCINOGEN DOSE FOR 51 WK (STUDY DURATION: 52 WK), Route [Inhibitor]: ORAL, Species: RAT, Strain/Sex: SPRAGUE-DAWLEY/FEMALE, Target Tissue: Type of Lesion: MAMMARY GLAND: CARCINOMA, Dose [Carcinogen]: 2.5 MG/100 G BW IN 0.5 ML SESAME OIL ONCE, Promoter: NONE USED) was 6/19 (32%), 1/20 (5%), 84%, p<0.05. Moreover, the “tumour outcome (control, treated, inhibition, significance)” value (Carcinogen: 7,12-DIMETHYLBENZ[A]ANTHRACENE, 57-97-6, Dose [Inhibitor]: 1.0% IN POWDERED DIET BEGINNING 1 WK POST CARCINOGEN DOSE FOR 51 WK (STUDY DURATION: 52 WK), Route [Inhibitor]: ORAL, Species: RAT, Strain/Sex: SPRAGUE-DAWLEY/FEMALE, Target Tissue: Type of Lesion: MAMMARY GLAND: FIBROADENOMA, Dose [Carcinogen]: 2.5 MG/100 G BW IN 0.5 ML SESAME OIL ONCE, Promoter: NONE USED) is 15/19 (79%), 4/20 (20%), 75%, p<0.001.
